Results: patent US3932512A, “Antiviral 1,2,3,4-tetrahydro-1,-alkano naphthalenamine derivatives” (priority 1972, dated 1976)
Like-named read-outs stand apart in the source and are kept apart here.

Key:
[1] = cytotoxicity in G-2 cells; format: cell-based; details: human; for CC50: 50% inhibition of cell growth, read-out: Cytotoxicity CTD50; for MNTC: maximal non-toxic concentration, read-out: Cytotoxicity CTD0
Description: In preparing the compounds for testing, they were handled aseptically throughout. The compounds were dissolved in a minimum amount of a suitable solvent and the final dilutions were made up to the required volume in a complete culture medium used in assay and in concentration not exceeding the predetermined maximum non-toxic levels.
The cell culture used in all primary in vitro anti-myxovirus assays was an established cell line of the human conjunctiva (G-2 cells). The cytotoxic studies of each of the compounds were performed prior to testing for antiviral activity to determine level of response of the cells to the potentially toxic action of the compounds.

[2] = system: mice; experiment: toxicity of in vitro active anti-myxovirus compounds in mice; details: for Maximal non-toxic dose LD0, acute / Maximal non-toxic dose LD0, subacute: I/P; for toxicity compared with Amantadine or compound I: words
[3] = as above; details: mouse, in vivo, ip, I/P
[4] = system: Influenza (swine); experiment: cells; format: cell-based; details: for inhibition at 30 µg/mL: 30 μg/ml; for inhibition at 80 µg/mL: 80 μg/ml; for inhibition at 100 µg/mL: 100 μg/ml
[5] = system: Influenza A2 /Aichi/3/68; experiment: in vitro anti-myxovirus activity, influenza A2 /Aichi/3/68, G-2 cells (% inhibition of hemadsorption); format: cell-based, Influenza A2 /Aichi/3/68 (human); details: for inhibition at 40 µg/mL: 40 μg/ml; for inhibition at 10 µg/mL: 10 μg/ml; for inhibition at 20 µg/mL: 20 μg/ml; for inhibition at 30 µg/mL: 30 μg/ml; for inhibition at 50 µg/mL: 50 μg/ml; for inhibition at 60 µg/mL: 60 μg/ml; for inhibition at 70 µg/mL: 70 μg/ml; for inhibition at 80 µg/mL: 80 μg/ml; for inhibition at 90 µg/mL: 90 μg/ml; for inhibition at 100 µg/mL: 100 μg/ml
[6] = 50% toxic dose LD50, acute, acute
[7] = 50% toxic dose LD50, subacute, subacute
[8] = Homo sapiens, 100 TCID50, read-out: % Inhibition

SMILES	CC50 [1]	MNTC [1]	Maximal non-toxic dose LD0, acute [2]	Maximal non-toxic dose LD0, subacute [2]	toxicity compared with Amantadine or compound I [2]	LD50 [3, 6]	LD50 [3, 7]	inhibition at 30 µg/mL [4]	inhibition at 40 µg/mL ([4]; 40 μg/ml)	inhibition at 50 µg/mL ([4]; 50 μg/ml)	inhibition at 60 µg/mL ([4]; 60 μg/ml)	inhibition at 80 µg/mL [4]	inhibition at 100 µg/mL [4]	inhibition at 40 µg/mL ([5]; 100 TCID50)	inhibition at 30 µg/mL ([5]; Homo sapiens, 100 TCID50)	inhibition at 50 µg/mL ([5]; Homo sapiens, 100 TCID50)	inhibition at 60 µg/mL ([5]; Homo sapiens, 100 TCID50)	inhibition at 70 µg/mL ([5]; Homo sapiens, 100 TCID50)	inhibition at 80 µg/mL ([5]; Homo sapiens, 100 TCID50)	inhibition at 90 µg/mL ([5]; Homo sapiens, 100 TCID50)	also measured
NC1C2CCC(c3ccccc32)C1N (stereo not drawn) [Compound VII, 1,2,3,4-tetrahydro-1,4-ethanonaphthalen-exo-3-endo-2-diamine]	> 100 µg/mL	> 100 µg/mL	700 mg/kg	700 mg/kg	far less toxic than either the known antiviral agent Amantadine or compound I	775 to 800 mg/kg	800 mg/kg	90%	97%	100%	100%	100%	100%	30%	20%	67%	80%	57%	60%	80%	inhibition at 10 µg/mL ([4]; 10 μg/ml): 0%; inhibition at 20 µg/mL ([4]; 20 μg/ml): 56%; % Inhibition ([4]; 20 μg/ml, listed as 1,2,3,4-TETRAHYDRO-1,4-[…]-EXO-3-ENDO-2-DIAMINE.2HCl): 70%; inhibition at 40 µg/mL ([5]; 31.6 TCID50): 87%; inhibition at 10 µg/mL ([5]; Homo sapiens, 31.6 TCID50): 0%; inhibition at 10 µg/mL ([5]; Homo sapiens, 100 TCID50): 0%; inhibition at 20 µg/mL ([5]; Homo sapiens, 31.6 TCID50): 7%; inhibition at 20 µg/mL ([5]; Homo sapiens, 100 TCID50): 0%; inhibition at 30 µg/mL ([5]; Homo sapiens, 31.6 TCID50): 60%; inhibition at 50 µg/mL ([5]; Homo sapiens, 31.6 TCID50): 95%; inhibition at 60 µg/mL ([5]; Homo sapiens, 31.6 TCID50): 100%; inhibition at 70 µg/mL ([5]; Homo sapiens, 31.6 TCID50): 100%; inhibition at 80 µg/mL ([5]; Homo sapiens, 31.6 TCID50): 100%; inhibition at 90 µg/mL ([5]; Homo sapiens, 31.6 TCID50): 100%; inhibition at 100 µg/mL ([5]; Homo sapiens, 31.6 TCID50, read-out: % Inhibition): 100%; inhibition at 100 µg/mL [5, 8]: 83%
NC12CC3CC(CC(C3)C1)C2 [Amantadine, reference compound]	> 100 µg/mL	> 100 µg/mL	175 mg/kg	150 mg/kg	–	–	–	0%	10%	67%	83%	100%	100%	0%	0%	0%	0%	33%	27%	67%	% Inhibition ([4]; 40 μg/ml, listed as AMANTADINE HYDROCHLORIDE): 17%; % Inhibition ([4]; 50 μg/ml, listed as AMANTADINE HYDROCHLORIDE): 80%; % Inhibition ([4]; 60 μg/ml, listed as AMANTADINE HYDROCHLORIDE): 90%; inhibition at 70 µg/mL ([4]; 70 μg/ml): 97%; % Inhibition ([4]; 70 μg/ml, listed as AMANTADINE HYDROCHLORIDE): 93%; inhibition at 90 µg/mL ([4]; 90 μg/ml): 100%; inhibition at 40 µg/mL ([5]; 56.2 TCID50): 0%; inhibition at 30 µg/mL ([5]; Homo sapiens, 56.2 TCID50): 0%; inhibition at 50 µg/mL ([5]; Homo sapiens, 56.2 TCID50): 0%; inhibition at 60 µg/mL ([5]; Homo sapiens, 56.2 TCID50): 53%; inhibition at 70 µg/mL ([5]; Homo sapiens, 56.2 TCID50): 83%; inhibition at 80 µg/mL ([5]; Homo sapiens, 56.2 TCID50): 70%; inhibition at 90 µg/mL ([5]; Homo sapiens, 56.2 TCID50): 97%; inhibition at 100 µg/mL ([5]; Homo sapiens, 56.2 TCID50): 87%; inhibition at 100 µg/mL ([5]; Homo sapiens, 100 TCID50): 43%
CN(C)C[C@H]1[C@H](N)[C@H]2C[C@@H]1c1ccccc12 (relative stereo) [Compound III, 1,2,3,4-tetrahydro-1,4-methanonaphthalen-exo-3-dimethylaminomethyl-endo-2-amine]	> 100 µg/mL	> 100 µg/mL	500 mg/kg	250 mg/kg	far less toxic than either the known antiviral agent Amantadine or compound I	750 mg/kg	500 to 750 mg/kg	–	–	–	–	–	–	–	–	–	–	–	–	–	inhibition at 33.3 µg/mL ([5]; Homo sapiens, 33.3 μg/ml, 100 TCID50): 3%; inhibition at 66.7 µg/mL ([5]; Homo sapiens, 66.7 μg/ml, 100 TCID50): 87%; inhibition at 100 µg/mL [5, 8]: 90%
